This passage reports IC50 results from BindingDB's records for PubMed 37939861 (Hebei Normal University).

This assay in a line: Inhibition of PCSK9 transcriptional activity in human HepG2 cells by luciferase reporter based assay. For orientation: In a reporter assay the amount or activity of a reporter protein is the signal.

Each structure is given as a SMILES string.

With `CCOC(=O)c1ccc2nc(N3CCN(NC(=O)c4ccc(Cl)c(Cl)c4)CC3)sc2c1`, the midpoint of inhibition, the IC50, lay at 6.53 µM.

Take `CC(C)(C)OC(=O)N1CCN(Cc2ccc3nc(NC(=O)c4ccc(S(=O)(=O)NCCC#N)cc4)sc3c2)CC1`: the IC50 – broadly, the concentration needed to halve the response being measured – came out at 3.96 µM.
